Here are results for three compounds from patent publication US20230168203A9, “Pyrogallarene Chelating and Sequestering Agents” (Kinsey Spiel, priority 2018, published 2023).

Data set [1] is described as follows: Example A: colour of C-propyl pyrogallol[4]arene colloid in deionized water after adding metal chloride salts (chelation indicator). On the procedure: A stock solution of was made of 400 mg of purified C-propyl pyrogallol[4]arene dissolved in 20 mL of acetone. […] Upon dispensing this aliquot the aqueous solutions were a colorless white colloid. The colloid appeared to be somewhat translucent. Upon dispensing NaCl into one colorless colloid the color was unchanged. Then various chloride salts of metals were added to colorless C-propyl pyrogallol[4]arene colloids. Upon adding ZnCl2 the colloid turned light brown. Upon adding MgCl2 the colloid turned pink. Upon adding Fe(III)Cl3 the colloid turned grey. Upon adding Cu(I)Cl the colloid turned brown. Upon adding CaCl2 the colloid turned pink. Upon adding Cr(III)Cl3 the colloid turned green. Upon adding BaCl2.2H2O the colloid turned pink. Upon adding MnCl2 the colloid turned salmon. Upon adding NiCl2 the colloid turned salmon.
In Example A, half of the metal salts, ZnCl2, MgCl2, CaCl2, and BaClz.2H2O, were colorless in their solid form, before adding them to the colloid. Pyrogallarene chelation is evident as a colorless salts are added to a colorless colloid and varying colors result. Five of the salts were colored in their solid form. […] Although Fe(III)Cl3 was brownish red in its solid form the resulting colloid solution was grey. Cu(I)Cl was green in its solid form but the resulting colloid solution was brown. NiCl2 was green in its solid form but the resulting colloid solution was pink.

Data set [2] can be described thus: Solid state contact of nearly dry pyrogallarenes with stainless steel spatula. Conditions: freshly-synthesized. The text has this: Pyrogallarenes, including C-methyl Pyrogallol[4]arene, C-ethyl Pyrogallol[4]arene, and C-propyl pyrogallol[4]arene, have a high affinity for metals, even in a homogeneous solid state reaction. For example, a stainless steel spatula in contact with these freshly-synthesized and not completely dry (nearly dry) pyrogallarenes results in a color shift from white to blue where the spatula came in contact with the pyrogallol[4]arene. This example may illustrate, as in previous examples, that a chelation reaction has occurred.

The nature of data set [3]: Resilience of chelated precipitate at high temperature. In kind it is physicochemical. Here is the method: Unlike some solids where solubility increases rapidly with increasing temperature the pyrogallarene chelated precipitate is resilient at high temperature. […] A chelate made from C-propyl pyrogallol[4]arene and a variety of metals is also undissolved at 80° C. […] However, heterogeneous pyrogallol[4]arene chelation complexes appear to dissolve minimally into aqueous solutions, limited by a low Ksp as discussed above.

Data set [4] in a line: Example B: precipitate formation of C-ethyl pyrogallarene colloid (from saturated methanol) after adding metal chlorides. An excerpt: Some metals required more time for a precipitate to form.
A short description of data set [5]: Example C: C-ethyl pyrogallol[4]arene colloid (from acetone stock) after adding chloride salts. On the procedure: Upon dispensing this aliquot the aqueous solutions were colorless white colloids. Various chloride salts were added to the solution including […], Tungsten(IV) chloride, Strontium chloride, Titanium chloride, Zirconyl (IV) chloride octahydrate, Aluminum chloride, and Hafnium chloride. All metal salts were colorless except Tungsten(IV) chloride, which was light green, and Titanium chloride, which was a yellow solution. […] All other colloids appeared unchanged immediately after the addition of the metal. This may be a result of no chelation or slow reaction kinetics for the chelated complex. Finally, one additional salt, colorless Gadolinium Chloride, was tested. […] As stated previously, various examples may indicate chelation and sequestration by pyrogallarenes on a PPM level, owing to the solubility of various chloride salts. For example, PbCl2 is very poorly soluble in water.

How the values of data set [6] were obtained:
A stock solution of was made of 100 mg of purified C-ethyl pyrogallol[4]arene dissolved in 20 mL of acetone. 1 mL aliquots of this stock solution were dispensed into vials containing 20 mL of water. Sample one contained TDS of 330, Ca of 30 ppm, Mg of 26 ppm, K of 1 ppm, Si of 15 ppm, bicarbonate of 360 ppm, Pb of <0.001, and a pH of 7.2. Sample two contained TDS of 222, Ca of 18 ppm, Mg of 15 ppm, K of 5.3 ppm, Si of 93 ppm, bicarbonate of 152 ppm, and a pH of 7.7. Sample three contained TDS of 44, Ca of 5 ppm, Mg of 1 ppm, K of 0 ppm, bicarbonate of 20 ppm, and a pH of 7.8.
This is another data set of the same source.

Data set [7] can be described thus: Heterogeneous chelation: solid pyrogallol[4]arene dispensed into unpurified aqueous solution.

The structures appear in SMILES notation. Read-outs that look alike come from different tables or passages of the source.

Take `CCCC1c2cc(c(O)c(O)c2O)C(CCC)c2cc(c(O)c(O)c2O)C(CCC)c2cc(c(O)c(O)c2O)C(CCC)c2cc1c(O)c(O)c2O` (centres unmarked) [C-propyl pyrogallol[4]arene]: the solubility in water result is given as “only slightly soluble”. Moreover, in data set [1] (BaCl2.2H2O added), the colour of colloid result was “pink”. In addition, the colour of colloid entry in data set [1] (CaCl2 added) is “pink”. For the same compound, the colour of colloid entry in data set [1] (Cr(III)Cl3 added) was “green”. Further, the colour of colloid entry in data set [1] (Cu(I)Cl added) is reported as “brown”. Moreover, the colour of colloid entry in data set [1] (Fe(III)Cl3 added) is listed as “grey”. Also, the colour of colloid entry in data set [1] (MgCl2 added) is on record as “pink”. In data set [1] (MnCl2 added), the colour of colloid entry is given as “salmon”. Moreover, in data set [1] (NaCl added), the colour of colloid result is reported as “unchanged”. In addition, the colour of colloid entry in data set [1] (NiCl2 added) is “salmon”. The colour of colloid result in data set [1] (ZnCl2 added) is listed as “light brown”. For the same compound, in data set [2], the “color shift where spatula came in contact” value was “white to blue”. In data set [3] (chelate with PbCl2, 80° C), the stability of chelate entry was “stable and undissolved”. In addition, in data set [3] (chelate with a variety of metals, 80° C), the stability of chelate result was “undissolved”.

`CC1c2cc(c(O)c(O)c2O)C(C)c2cc(c(O)c(O)c2O)C(C)c2cc(c(O)c(O)c2O)C(C)c2cc1c(O)c(O)c2O` (centres unmarked) [C-methyl Pyrogallol[4]arene]: the “color shift where spatula came in contact” value in data set [2] was “white to blue”.

For the compound `CCC1c2cc(c(O)c(O)c2O)C(CC)c2cc(c(O)c(O)c2O)C(CC)c2cc(c(O)c(O)c2O)C(CC)c2cc1c(O)c(O)c2O` (centres unmarked) [C-ethyl pyrogallol[4]arene], the solubility in water entry is recorded as “mostly insoluble”. Besides, the precipitate formed entry in data set [4] (BaClz.2H2O, 24 hours later) was “white precipitate”. Also, the precipitate formed result in data set [4] (CaCl2 added, immediately) is “blue precipitate”. Moreover, the precipitate formed result in data set [4] (Cr(III)Cl3, 24 hours later) is given as “white precipitate”. The precipitate formed result in data set [4] (Cu(I)Cl, 24 hours later) is listed as “grey precipitate”. In addition, the precipitate formed result in data set [4] (NiClz, 24 hours later) is on record as “white precipitate”. In addition, in data set [4] (PbCl2 added, immediately), the precipitate formed entry is “blue precipitate”. Further, in data set [4] (ZnCl2 added, immediately), the precipitate formed result is reported as “blue precipitate”. Moreover, the observation on colloid entry in data set [5] (Aluminum chloride added, immediately after addition) was “unchanged”. For the same compound, the observation on colloid result in data set [5] (Gadolinium Chloride added) is “purple precipitate”. The observation on colloid entry in data set [5] (Hafnium chloride added) is “grey precipitate”. Also, the observation on colloid entry in data set [5] (Strontium chloride added) is “white precipitate”. Further, the observation on colloid entry in data set [5] (Titanium chloride added, immediately after addition) is recorded as “unchanged”. Further, the observation on colloid result in data set [5] (Tungsten(IV) chloride added, immediately after addition) was “unchanged”. For the same compound, the observation on colloid result in data set [5] (Yttrium(II) chloride hydrate added) is “purple precipitate”. Besides, the observation on colloid entry in data set [5] (Zirconyl (IV) chloride octahydrate added) is on record as “clear grey solution”. Further, in data set [6] (Sample four: pH 9.4), the “observation on water sample” value is on record as “pink colored solution”. Further, in data set [6] (Sample one: TDS 330, Ca 30 ppm, Mg 26 ppm, pH 7.2), the “observation on water sample” value is “dense blue precipitate”. Also, the “observation on water sample” value in data set [6] (Sample three: TDS 44, Ca 5 ppm, Mg 1 ppm, pH 7.8, several days) is “did not produce a precipitate”. Moreover, the “observation on water sample” value in data set [6] (Sample two: TDS 222, Ca 18 ppm, Mg 15 ppm, pH 7.7, over a few minutes) is recorded as “diffuse blue precipitate”. Moreover, the “color shift where spatula came in contact” value in data set [2] is given as “white to blue”. Also, the dissolution of solid entry in data set [7] (solid in unpurified aqueous solution) is given as “almost completely undissolved”. Besides, the “shift of absorbance colour of solid” value in data set [7] (solid, colorless compound in unpurified aqueous solution) is “blue”.
